Patent publication US20250319206A1, “CRISPR/CAS GENE EDITING OF NEH4 AND/OR NEH5 DOMAINS IN NRF2” (Christina Care Gene Editing Institute, Inc., priority 2024, published 2025)

Legend:
Panc-1 cells = assay: Cell viability with gemcitabine, CellTiter-Glo 2.0, Panc-1 cells; type: cell-based, Human; settings: naïve (unedited) Panc-1 cells, 72 hours
Method: Wildtype and transfected Panc-1 cells were plated to 24 well plates (n=5) at 50,000 cells per well and placed in incubator for 24 hours. The cells were then treated with either Gemcitabine (Selleckchem, Cat. S1714) or DMSO (Thermo Fisher, Cat. D12345). Cells treated with Gemcitabine were treated at one of the following concentrations: 0 μM, 2.5 μM, 5 μM, 25 μM while cells treated with DMSO were treated at: 0%, 0.025%, 0.05%, or 0.25%. Cells remained in Gemcitabine or DMSO for 72 hours before being evaluated using CellTiter-Glo 2.0 Cell Viability Assay (Promega, Cat. G9241).
Since our long-term objective is to develop an effective genetic treatment that would augment standard care, we decided to examine the possibility that we could restore sensitivity to gemcitabine by genetic editing of NRF2 in gemcitabine resistant Panc1 cells. We are using gemcitabine as a selection system to determine if gene editing at some level, can help restore tumor cell killing. We established the kill curve of Panc1 unedited cells by gemcitabine under our standard reaction conditions to serve as a baseline. […] Again, after 72 hours, each cell population was exposed to gemcitabine for an additional 72 hours and thereafter cell viability of the treated and untreated cells was measured using the Cell Titer 2.0 viability assay (Promega, Madison, WI, USA). […]

NRF2 = NRF2 western blot in Panc-1 cells; type: cell-based, Human; settings: edited Panc-1 populations vs unedited, GAPDH loading control
Method: Panc-1 cell pellets were collected using a standard RIPA lysis buffer containing protease inhibitor cocktail. Total protein concentration of collected cells was then determined using BCA Protein Assay kit (Pierce, Rockford, IL, USA). The samples were boiled at 95° C. for 10 minutes and then underwent SDS-PAGE on a 10% Mini-PROTEAN TGX Stain-free Protein Gel (BioRad, Cat. 4568033) for 90 min at 100 V. The gel was then transferred to a nitrocellulose membrane using Trans-Blot Turbo Transfer Systems (BioRad, Hercules, CA, USA) with Trans-Blot Turbo RTA Mini 0.2 μm Nitrocellulose Transfer Kit (BioRad Cat. 1704158), mixed molecular weight program, 10 minutes. The blot was placed in 5% milk and blocked at room temperature on shaker for 2 hours. Incubation in primary NRF2 antibody was done overnight at 4° C. on shaker (1:1,000, Abcam ab62352). Membrane was then incubated at room temperature on shaker for 1 hour in NRF2 secondary (1:10,000, Abcam ab205718). The SuperSignal West Dura Extended Duration ECL (Pierce) kit was used on the LI-COR Odyssey FC to visualize bands. […]

| Compound | concentration of drug to achieve 75% killing (Panc-1 cells) | NRF2 protein knock down (NRF2) |
| --- | --- | --- |
| Nc1ccn([C@@H]2O[C@H](CO)[C@@H](O)C2(F)F)c(=O)n1 [gemcitabine, reference compound] | ~100 µM | – |
| sg5: gRNA targeting exon 3 of NRF2; CCTCATTGTCATCTACAAAC GGG (guide CCTCATTGTCATCTACAAACGGG; listed as DNA, chemistry not given here) | – | significant knockdown of protein |
